# Test results as given in publication PMC2910439, “Imperatoxin A, a Cell-Penetrating Peptide from Scorpion Venom, as a Probe of Ca^2+-Release Channels/Ryanodine Receptors” (Pharmaceuticals, 2010).
# Starred links: 1 amine or outer side, 2 acyl side, 3 side chain; linkers in the order of their positions; H or OH if unused. Positions of bridges follow the written chain, without caps; N, C: chain ends. Non-standard residues stand in square brackets, D forms with d. Residues, ends and D or L forms follow the SMILES beside them. *: point of attachment. X1 = CC1CC(C)(C)Nc2c1cc1c(c2S(=O)(=O)O)Oc2c(S(=O)(=O)O)c3c(cc2=C1c1c(Cl)c(SCC(=O)*)c(Cl)c(Cl)c1C(=O)O)C(C)CC(C)(C)N=3; X2 = N=C(CCCSC1CC(=O)N(CCCCCN[*:1])C1=O)NCC(=O)[*:2]
# Tests used:
# [1] = system: isolated rat ventricular myocytes; settings: 0.5 mM; followed by steady decline to a new lower steady-state; cited from earlier work
# Protocol: At lower concentrations (100-300 nM), IpTxa perfusion elicited several discernible stimulatory effects in most cells.
# [2] = system: intact mouse ventricular myocytes; assay type: cell-based; settings: for speed of penetration into living isolated cardiomyocytes: conclusion, native toxin judged by [Ca2+]i transients, derivative by fluorescence
# Protocol: To visualize the cell-penetrating properties of Alexa-IpTxa in intact cells, ventricular cardiomyocytes were enzymatically isolated and incubated with 5 μM Alexa-IpTxa and Alexa 488-Wheat Germ Agglutinin (10 μg/mL) for 30 min at room temperature (see Experimental Methods). The distribution of Alexa-546-IpTxa (red fluorescence) and WAG-Alexa-488 (green fluorescence) were monitored in living, unfixed cardiac myocytes.
# We next sought to establish a time-course for the translocation of Alexa-IpTxa across the plasma membrane of intact cardiomyocytes. […] Clear intracellular localization of fluorescence is seen only with Alexa-IpTxa, as early as 10 min after incubation (panel D), but more intensely after 20 min incubation (panel F). In order to refine the time-course of Alexa-IpTxa penetration into cardiomyocytes, we continuously monitored the evolution of fluorescence in 3 regions of interest (ROI) corresponding to the plasma membrane and adjacent cytosol (ROI-1), the bulk cytosol (ROI-2), and the nucleus (ROI-3). A fourth ROI (not shown) was defined to monitor changes in fluorescence of the bath solution. Animations of IpTxa translocation into cells are available online as supplementary data (URL: http://www.mdpi.com/1424-8247/3/4/1093/S1).
# Isolated cardiac myocytes were incubated with Alexa-546-IpTxa (5 μM) with or without WGA-Alexa 488 (10 μg/mL) for 30 min in the dark. Images were acquired with a BioRad MR-1 confocal microscope coupled to a Nikon Disphot microscope and an X60 oil immersion objective using the Lasersharp 2000 software. Confocal images are 0.25 μm sections. All experiments were performed at room temperature.
# Ventricular myocytes were imaged with a Zeiss META 5 confocal microscope equipped with laser scanning. Three regions of interest were delineated corresponding to the plasma membrane (ROI-1), […]. Changes in fluorescence intensity in these regions were monitored and analyzed. Alexa-546-IpTxa fluorescence was excited with the 488 nm line of an argon laser, and emitted light was filtered by a LP 585 filter. Alexa-546-IpTxa was perfused at a concentration of 1 μM. Scans were taken every 3 seconds for a total of 351 seconds. After the time series, perfusion was turned off and the cell remained in the bath for 30 minutes. Scans were taken at 9 minutes and 30 minutes.
# [3] = system: intact mouse ventricular cardiomyocytes; assay: Ca2+ imaging of field-stimulated ventricular myocytes perfused with toxin; assay type: cell-based
# Protocol: IpTxa’s ability to induce subconducting states in single channels and to enhance binding of [^3H]ryanodine to SR vesicles distinguish it as a RyR agonist. […] Ventricular cardiomyocytes were enzymatically digested, loaded with the Ca^2+ indicator Fluo-3, and placed into the perfusion chamber of a Zeiss confocal microscope (see Experimental Methods). Cells were field-stimulated under Normal Tyrode (NT) solution, and Ca^2+ transients were recorded in line-scan mode (control). Perfusion was then changed to NT + IpTxa (in the range of 100 nM-30 µM), and transients were recorded in the presence of toxin (+IpTxa). We hypothesized that if IpTxa penetrates cardiomyocytes to reach its intracellular target, it would alter the shape of [Ca^2+]i transients elicited with field-stimulation. As expected, changes in [Ca^2+]i transients were evident within seconds of perfusion with the toxin. […] For this experiment, cells were paced at 0.5 Hz under NT solution (see Experimental Methods). Cells were scanned first without IpTxa (control transients, Figure 1A), and then IpTxa was perfused and a second scan was taken immediately afterward (Figure 1B).
# Mouse ventricular myocytes were isolated by collagenase digestion of perfused mouse hearts using the method of Mitra and Morad with modification addressed by Wolska and Solaro [23]. Mice were heparinized and anesthetized […] before removal and hanging of the heart. Cells were suspended in Tyrode solution ((mM) 130 NaCl, 5.4 KCl, 0.4 NaH2PO4, 0.5 MgCl2, 25 HEPES, 22 glucose, 0.01 μg/mL insulin, pH7.4 with NaOH) and kept at room temperature until used within 6 h.
# Changes in cytosolic [Ca^2+] using the Ca^2+-dependent fluorescent dye Fluo-3 AM. Fluo-3 AM was added to ventricular myocytes in Tyrodes solution (final concentration 10 μM) and incubated at room temperature for 30 minutes, after which the cells were washed and resuspended in Tyrodes solution. Fluorescence changes were monitored with a Zeiss META 5 line-scanning confocal microscope. Fluo-3 was excited at 488nm, and emissions were collected at 500-570 nm. Cells were perfused with normal Tyrodes and field-stimulated at 1 Hz. After recording control transients, synthetic, unmodified IpTxa was perfused at concentrations of 10 μM, 1 μM, and 100 nM for 10 seconds. To estimate the calcium load of the sarcoplasmic reticulum, we stopped stimulations and performed a rapid application of 10 mM caffeine to elicit complete Ca^2+ release.
smiles,measurement,setting,value
Cn1c(=O)c2c(ncn2C)n(C)c1=O [caffeine],effect on Ca2+ transient amplitude,[1],brief increase in the amplitude of the Ca^2+ transient
"CC(C)C[C@@H]1NC(=O)[C@H](Cc2c[nH]cn2)NC(=O)[C@@H]2CCCN2C(=O)[C@H](CC(C)C)NC(=O)[C@@H](NC(=O)[C@H](CC(=O)O)NC(=O)CNC(=N)CCCSC2CC(=O)N(CCCCCNC(=O)CSc3c(Cl)c(Cl)c(C(=O)O)c(C4=c5cc6c(c(S(=O)(=O)O)c5Oc5c4cc4c(c5S(=O)(=O)O)NC(C)(C)CC4C)=NC(C)(C)CC6C)c3Cl)C2=O)CSSC[C@@H]2NC(=O)[C@@H]3CSSC[C@@H](C(=O)N[C@@H](CCCNC(=N)N)C(=O)O)NC(=O)[C@H](CCCNC(=N)N)NC(=O)[C@H](CCCCN)NC(=O)[C@H](CCC(=O)O)NC(=O)[C@H](C)NC(=O)[C@H](CC(N)=O)NC(=O)[C@H]([C@@H](C)O)NC(=O)CNC(=O)[C@H](CCCNC(=N)N)NC(=O)[C@H](CCCNC(=N)N)NC(=O)[C@H](CCCCN)NC(=O)[C@H](CSSC[C@H](NC(=O)[C@H](CCCNC(=N)N)NC(=O)[C@H](CCCCN)NC1=O)C(=O)N[C@@H](CCCCN)C(=O)N[C@@H](C)C(=O)N[C@@H](CC(=O)O)C(=O)N[C@@H](CC(N)=O)C(=O)N[C@@H](CC(=O)O)C(=O)N3)NC(=O)[C@H](CCCCN)NC(=O)[C@H](CCCCN)NC(=O)CNC2=O (stereo partly drawn) [Alexa-IpTxa] (X1-[X2]DCLPHLKRCKADNDCCGKKCKRRGTNAEKRCR-OH; disulfide 3-17, 10-21, 16-32; C-terminus assumed)",time at which clear intracellular localization of fluorescence is seen,"[2]; 1 μM perfusion, confocal, more intense at later time",≤ 10 min
same,speed of penetration into living isolated cardiomyocytes,[2],slower (minutes)
"CC1CC(C)(C)Nc2c1cc1c(c2S(=O)(=O)O)Oc2c(S(=O)(=O)O)c3c(cc2=C1c1c(Cl)c(SCC(=O)NCCCCCN2C(=O)C=CC2=O)c(Cl)c(Cl)c1C(=O)O)C(C)CC(C)(C)N=3 (stereo not drawn) [Alexa-maleimide, Alexa-Fluor-546-C5-maleimide, reference compound]",membrane permeability (negative control),[2]; as stated for the fluorophore reagent,membrane-impermeable
"CC(C)C[C@@H]1NC(=O)[C@H](Cc2c[nH]cn2)NC(=O)[C@@H]2CCCN2C(=O)[C@H](CC(C)C)NC(=O)[C@@H](NC(=O)[C@H](CC(=O)O)NC(=O)CN)CSSC[C@@H]2NC(=O)[C@@H]3CSSC[C@@H](C(=O)N[C@@H](CCCNC(=N)N)C(=O)O)NC(=O)[C@H](CCCNC(=N)N)NC(=O)[C@H](CCCCN)NC(=O)[C@H](CCC(=O)O)NC(=O)[C@H](C)NC(=O)[C@H](CC(N)=O)NC(=O)[C@H]([C@@H](C)O)NC(=O)CNC(=O)[C@H](CCCNC(=N)N)NC(=O)[C@H](CCCNC(=N)N)NC(=O)[C@H](CCCCN)NC(=O)[C@H](CSSC[C@H](NC(=O)[C@H](CCCNC(=N)N)NC(=O)[C@H](CCCCN)NC1=O)C(=O)N[C@@H](CCCCN)C(=O)N[C@@H](C)C(=O)N[C@@H](CC(=O)O)C(=O)N[C@@H](CC(N)=O)C(=O)N[C@@H](CC(=O)O)C(=O)N3)NC(=O)[C@H](CCCCN)NC(=O)[C@H](CCCCN)NC(=O)CNC2=O [IpTxa, imperatoxin A] (H-GDCLPHLKRCKADNDCCGKKCKRRGTNAEKRCR-OH; disulfide 3-17, 10-21, 16-32 (inferred); N-terminus and C-terminus assumed)",effect on diastolic [Ca2+]i,"[3]; 100 nM to 3 µM perfused, in some cells",elevated diastolic [Ca^2+]i
same,effect on [Ca2+]i transients at high concentration,"[3]; 30 µM perfused in normal Tyrode, cells paced at 0.5 Hz, Fluo indicator, line-scan confocal, representative of three of four experiments",complete cessation of [Ca^2+]i transients
same,effect on [Ca2+]i transient amplitude at lower concentrations,"[3]; 100-300 nM perfused, followed by gradual diminution to a new, lower steady-state, representative of 12 of 36 experiments",significant increase in the amplitude of the [Ca^2+]i transient
same,lag time of effects on intracellular Ca2+ signaling after perfusion,[3]; perfusion on intact cells,2 to 3 s
same,speed of penetration into living isolated cardiomyocytes,[2],rapid (few seconds)
